# Values of other authors as cited in patent US20050065127A1, “2-Alkylidene-19-nor-vitamin D derivatives for the treatment of osteosarcoma” (Pfizer Inc., priority 2003, published 2005).
# Test system: serum calcium (bone calcium mobilization)
# Conditions: chronic mode, 7 days, rats; 20S compound at 130 pmol/day
structure (smiles),measurement,value
"C=C1[C@H](O)CC(=C/C=C2\CCC[C@]3(C)[C@@H]([C@H](C)CCCC(C)(C)O)CC[C@@H]23)C[C@H]1O [2-Methylene-19-Nor-1,25-(OH)2D3, 1α,25-dihydroxy-2-methylene-19-nor-vitamin D3]","Bone calcium mobilization activity (serum calcium) relative to 1,25-(OH)2D3",10-100 times
